Legend:
Format in all cases: in vivo
[1] = system: Italian ryegrass (Lolium multiflorum); experiment: Test A preemergence, visual plant response rating; conditions: for Ryegrass, Italian plant response rating: 125 g ai/ha, preemergence, 0 to 100 scale, 0 no effect, 100 complete control; for Ryegrass, Italian plant response rating (0 to 100 scale): 500 g ai/ha Preemergence, approx. 10 days
Outline: (§1)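 Preemergence: seeds in loam/sand blend given directed soil spray of compound in non-phytotoxic solvent with surfactant. Postemergence: plants 2–10 cm, one- to two-leaf stage, sprayed with same formulation. Visual injury rated vs untreated controls after ~10 days in greenhouse, 0 (no effect) to 100 (complete control).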

[2] = system: barnyardgrass (Echinochloa crus-galli); experiment: Test A preemergence, visual plant response rating; conditions: for Barnyardgrass plant response rating: 125 g ai/ha, preemergence, 0 to 100 scale, 0 no effect, 100 complete control; for Barnyardgrass plant response rating (0 to 100 scale): 500 g ai/ha Preemergence, approx. 10 days
Outline: as §1

[3] = system: foxtail, giant (giant foxtail, Setaria faberii); experiment: Test A preemergence, visual plant response rating; conditions: for Foxtail, Giant plant response rating: 125 g ai/ha, preemergence, 0 to 100 scale, 0 no effect, 100 complete control; for Foxtail, Giant plant response rating (0 to 100 scale): 500 g ai/ha Preemergence, approx. 10 days
Outline: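 Ratings use a 0–100 visual scale (100 = complete control) against untreated controls, scored about 10 days after greenhouse treatment. Test chemicals were formulated in surfactant-containing non-phytotoxic solvent and applied either as soil spray after planting (preemergence) or onto one- to two-leaf, 2–10 cm plants (postemergence).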

kochia (Kochia scoparia) [4] = experiment: Test A preemergence, visual plant response rating; conditions: for Kochia plant response rating: 125 g ai/ha, preemergence, 0 to 100 scale, 0 no effect, 100 complete control; for Kochia plant response rating (0 to 100 scale): 500 g ai/ha Preemergence, approx. 10 days
Outline: as §1

[5] = system: pigweed (Amaranthus retroflexus); experiment: Test A preemergence, visual plant response rating; conditions: for Pigweed plant response rating: 125 g ai/ha, preemergence, 0 to 100 scale, 0 no effect, 100 complete control; for Pigweed plant response rating (0 to 100 scale): 500 g ai/ha Preemergence, approx. 10 days
Outline: as §1

[6] = system: ragweed (common ragweed, Ambrosia elatior); experiment: Test A preemergence, visual plant response rating; conditions: for Ragweed plant response rating: 125 g ai/ha, preemergence, 0 to 100 scale, 0 no effect, 100 complete control; for Ragweed plant response rating (0 to 100 scale): 500 g ai/ha Preemergence, approx. 10 days
Outline: as §1

[7] = system: Italian ryegrass (Lolium multiflorum); experiment: Test A postemergence, visual plant response rating; conditions: for Ryegrass, Italian plant response rating (0 to 100 scale): 500 g ai/ha, postemergence, 0 is no effect, 100 is complete control; for Ryegrass, Italian plant response rating: Postemergence, 125 g ai/ha, 0 to 100 scale (0 no effect, 100 complete control)
Outline: as §1

[8] = system: barnyardgrass (Echinochloa crus-galli); experiment: Test A postemergence, visual plant response rating; conditions: for Barnyardgrass plant response rating (0 to 100 scale): 500 g ai/ha, postemergence, 0 is no effect, 100 is complete control; for Barnyardgrass plant response rating: Postemergence, 125 g ai/ha, 0 to 100 scale (0 no effect, 100 complete control)
Outline: as §1

[9] = system: blackgrass (Alopecurus myosuroides); experiment: Test A postemergence, visual plant response rating; conditions: for Blackgrass plant response rating (0 to 100 scale): 500 g ai/ha, postemergence, 0 is no effect, 100 is complete control; for Blackgrass plant response rating: Postemergence, 125 g ai/ha, 0 to 100 scale (0 no effect, 100 complete control)
Outline: as §1

corn (Zea mays) = experiment: Test A postemergence, visual plant response rating; conditions: for Corn plant response rating (0 to 100 scale): 500 g ai/ha, postemergence, 0 is no effect, 100 is complete control; for Corn plant response rating: Postemergence, 125 g ai/ha, 0 to 100 scale (0 no effect, 100 complete control)
Outline: as §1

[10] = system: foxtail, giant (giant foxtail, Setaria faberii); experiment: Test A postemergence, visual plant response rating; conditions: for Foxtail, Giant plant response rating (0 to 100 scale): 500 g ai/ha, postemergence, 0 is no effect, 100 is complete control; for Foxtail, Giant plant response rating: Postemergence, 125 g ai/ha, 0 to 100 scale (0 no effect, 100 complete control)
Outline: as §1

[11] = system: galium (catchweed bedstraw, Galium aparine); experiment: Test A postemergence, visual plant response rating; conditions: for Galium plant response rating (0 to 100 scale): 500 g ai/ha, postemergence, 0 is no effect, 100 is complete control; for Galium plant response rating: Postemergence, 125 g ai/ha, 0 to 100 scale (0 no effect, 100 complete control)
Outline: as §1

kochia (Kochia scoparia) [12] = experiment: Test A postemergence, visual plant response rating; conditions: for Kochia plant response rating (0 to 100 scale): 500 g ai/ha, postemergence, 0 is no effect, 100 is complete control; for Kochia plant response rating: Postemergence, 125 g ai/ha, 0 to 100 scale (0 no effect, 100 complete control)
Outline: as §1

[13] = system: pigweed (Amaranthus retroflexus); experiment: Test A postemergence, visual plant response rating; conditions: for Pigweed plant response rating (0 to 100 scale): 500 g ai/ha, postemergence, 0 is no effect, 100 is complete control; for Pigweed plant response rating: Postemergence, 125 g ai/ha, 0 to 100 scale (0 no effect, 100 complete control)
Outline: as §1

[14] = system: ragweed (common ragweed, Ambrosia elatior); experiment: Test A postemergence, visual plant response rating; conditions: for Ragweed plant response rating (0 to 100 scale): 500 g ai/ha, postemergence, 0 is no effect, 100 is complete control; for Ragweed plant response rating: Postemergence, 125 g ai/ha, 0 to 100 scale (0 no effect, 100 complete control)
Outline: as §1

[15] = system: wheat (Triticum aestivum); experiment: Test A postemergence, visual plant response rating; conditions: for Wheat plant response rating (0 to 100 scale): 500 g ai/ha, postemergence, 0 is no effect, 100 is complete control; for Wheat plant response rating: Postemergence, 125 g ai/ha, 0 to 100 scale (0 no effect, 100 complete control)
Outline: as §1

[16] = system: barnyardgrass (Echinochloa crus-galli); experiment: Test B flooded paddy test, visual plant response rating; conditions: 250 g ai/ha, Flood, applied to paddy water, 2-leaf stage, evaluated after 13 to 15 days
Outline: (§2)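 2-leaf plants; pots flooded 3 cm over soil surface; compound dosed straight into the floodwater; depth kept constant; greenhouse 13–15 d; visual rating vs. untreated controls.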

[17] = system: ducksalad (Heteranhera limosa); experiment: as above; conditions: 250 g ai/ha, Flood, applied to paddy water, 2-leaf stage, evaluated after 13 to 15 days
Outline: as §2

rice (Oryza sativa) = experiment: as above; conditions: 250 g ai/ha, Flood, applied to paddy water, 2-leaf stage, evaluated after 13 to 15 days
Outline: as §2

[18] = system: sedge, umbrella (small-flower umbrella sedge, Cyperus difformis); experiment: as above; conditions: 250 g ai/ha, Flood, applied to paddy water, 2-leaf stage, evaluated after 13 to 15 days
Outline: as §2

Compound | Ryegrass, Italian plant response rating [1] | Ryegrass, Italian plant response rating (0 to 100 scale) [1] | Barnyardgrass plant response rating [2] | Barnyardgrass plant response rating (0 to 100 scale) [2] | Foxtail, Giant plant response rating [3] | Foxtail, Giant plant response rating (0 to 100 scale) [3] | Kochia plant response rating (kochia (Kochia scoparia) [4]) | Kochia plant response rating (0 to 100 scale) (kochia (Kochia scoparia) [4]) | Pigweed plant response rating [5] | Pigweed plant response rating (0 to 100 scale) [5] | Ragweed plant response rating [6] | Ragweed plant response rating (0 to 100 scale) [6] | Ryegrass, Italian plant response rating (0 to 100 scale) [7] | Ryegrass, Italian plant response rating [7] | Barnyardgrass plant response rating (0 to 100 scale) [8] | Barnyardgrass plant response rating [8] | Blackgrass plant response rating (0 to 100 scale) [9] | Blackgrass plant response rating [9] | Corn plant response rating (0 to 100 scale) (corn (Zea mays)) | Corn plant response rating (corn (Zea mays)) | also measured
C#CCO/N=C(\c1c(O)c(C)nn(C)c1=O)c1ccc(F)c2ccccc12 [Compound 108, 4-[(Z)-(4-fluoro-1-naphthalenyl)(2-propyn-1-yloxy)imino]methyl-5-hydroxy-2,6-dimethyl-3(2H)-pyridazinone] | 100 | 100 | 90 | 100 | 100 | 100 | 50 | 100 | 100 | 100 | 90 | 100 | 100 | 100 | 90 | 90 | 100 | 100 | 80 | 30 | Foxtail, Giant plant response rating (0 to 100 scale) [10]: 90; Foxtail, Giant plant response rating [10]: 80; Galium plant response rating (0 to 100 scale) [11]: 100; Galium plant response rating [11]: 100; Kochia plant response rating (0 to 100 scale) (kochia (Kochia scoparia) [12]): 80; Kochia plant response rating (kochia (Kochia scoparia) [12]): 60; Pigweed plant response rating (0 to 100 scale) [13]: 100; Pigweed plant response rating [13]: 90; Ragweed plant response rating (0 to 100 scale) [14]: 100; Ragweed plant response rating [14]: 80; Wheat plant response rating (0 to 100 scale) [15]: 80; Wheat plant response rating [15]: 70; Plant response rating, Barnyardgrass (0 to 100 scale, 0 is no effect, 100 is complete control) [16]: 0; Plant response rating, Ducksalad (0 to 100 scale, 0 is no effect, 100 is complete control) [17]: 0; Plant response rating, Rice (0 to 100 scale, 0 is no effect, 100 is complete control) (rice (Oryza sativa)): 0; Plant response rating, Sedge, Umbrella (0 to 100 scale, 0 is no effect, 100 is complete control) [18]: 0
CON=C(c1ccccc1C1CC1)c1c(O)c(C)nn(C)c1=O [Compound 104] | 90 | 100 | 60 | 80 | 80 | 100 | 20 | 70 | 70 | 70 | 50 | 80 | 100 | 90 | 80 | 40 | 90 | 80 | 30 | 30 | Foxtail, Giant plant response rating (0 to 100 scale) [10]: 80; Foxtail, Giant plant response rating [10]: 70; Galium plant response rating (0 to 100 scale) [11]: 100; Galium plant response rating [11]: 90; Kochia plant response rating (0 to 100 scale) (kochia (Kochia scoparia) [12]): 80; Kochia plant response rating (kochia (Kochia scoparia) [12]): 70; Pigweed plant response rating (0 to 100 scale) [13]: 90; Pigweed plant response rating [13]: 70; Ragweed plant response rating (0 to 100 scale) [14]: 90; Ragweed plant response rating [14]: 80; Wheat plant response rating (0 to 100 scale) [15]: 80; Wheat plant response rating [15]: 40; Plant response rating, Barnyardgrass (0 to 100 scale, 0 is no effect, 100 is complete control) [16]: 0; Plant response rating, Ducksalad (0 to 100 scale, 0 is no effect, 100 is complete control) [17]: 0; Plant response rating, Rice (0 to 100 scale, 0 is no effect, 100 is complete control) (rice (Oryza sativa)): 0; Plant response rating, Sedge, Umbrella (0 to 100 scale, 0 is no effect, 100 is complete control) [18]: 0

Source: patent US20210045385A1, “PYRIDAZINONE-SUBSTITUTED KETOXIMES AS HERBICIDES” (FMC Corporation, priority 2018, published 2021)
